Entries after “also recorded” stand apart in the source; their conditions may differ.
How the values were obtained:
[1] = system: HHD DR1 HLA-A2 transgenic mice; assay: ELISPOT-IFNγ assay on splenocytes of vaccinated HLA-A2 transgenic mice; format: in vivo, mouse; settings: for immunogenicity: T cell response in ELISPOT-IFNγ: 30 nmol peptide + UCP2 helper in Montanide ISA 51 VG s.c., prime d0, boost d14, spleen d21, restimulation 10 μM; for cross-reactivity of induced T cells with the corresponding human peptide in ELISPOT-IFNγ: prime d0, boost d14, spleen d21, challenge with human peptide 10 μM
Experimental: Briefly, HLA-A2 HHD-DR1 humanized mice (C57BL/6JB2mtm1UnclAb−/−Tg(HLA-DRA, HLA-DRB1*0101)#GjhTg(HLA-A/H2-D/B2M)1 Bpe) were assigned randomly (based on mouse sex and age) to experimental groups, wherein each group was immunized with a specific vaccination peptide (vacc-pAg) combined to a common helper peptide (h-pAg UCP2; sequence: […]; SEQ ID NO: 39) (as outlined in Table 6 below).
The peptide formulation to be injected (emulsion) was prepared freshly on each day of injection and for each group. A mix for 10 animals was prepared using 2 mL luer lock syringes (4606701 V, B BRAUN) and luer lock female-female Combifix® Adapter (B. Braun, 5206634): 500 μL of peptide mixture in syringe 1 was emulsified with 500 μL of Montanide ISA 51 VG (Seppic) contained in syringe 2. The emulsification process was performed first by pushing the peptide mixture contained in syringe 1 into syringe 2 (containing Montanide) at very low speed. Transfer of the mixture from one syringe to another was then performed at very low speed during 6 cycles (one cycle corresponding to one passage from one syringe to another), and secondly at high speed, as fast as possible, for 1 minute. Each emulsion was prepared in excess to compensate for the dead volumes at injection.
The animals were immunized on day 0 (d0) with a prime injection, and on d14 with a boost injection. Each mouse was injected s.c. on the loose skin over the neck of the animals with 100 μL of an oil-based emulsion that contained: • 30 nmol of vacc-pAg and 30 or 100 μg of UCP2 helper peptide in 50 μL of a dedicated final solvent • Montanide ISA 51 VG (Seppic) added at 1:1 (v:v) ratio (50 μL per mouse).
Seven days after the boost injection (i.e. on d21), the animals were euthanized and the spleen was harvested. Splenocytes were prepared by mechanical disruption of the organ followed by 70 μm-filtering and Red blood cell lysis.
The cell suspensions were further used in an ELISPOT-IFN assay (Table 5). The cells were cultured in 200 μL of complete T cell medium. Experimental conditions (duplicates) were as follow: 2×10^5 total cells per well when cultured in presence of various pAg (10 μM) or medium-only; and 2×10^4 total cells when cultured in presence of the positive control PMA/lonomycin (PMA: Sigma P8139: 0.1 μM final; lonomycin: Sigma 10634: 1 μM final). The cultures were assessed for their capacity to secrete IFN (mouse IFN-ELISpotPLUS kit, Mabtech 3321-4APT-10), following the manufacturer's instructions (˜12-48h incubation time before performing the assay). The peptides used for restimulation are described in Table 7.
Spots were counted on a an iSpot Fluorospot Reader System (AID). Data plotting and statistical analysis were performed with the Prism-9 software (GraphPad Software Inc.).
The data were provided as a number of spots per 1·10^6 total T cells. The individual average values (obtained from the duplicates) were next used to plot the group average values. Statistical analysis for comparison (to the irrelevant peptide condition) were performed using unpaired non-parametric test (Mann Whitney) (**: p<0.01; *: p<0.05).

HLA-A*0201 = molecular target: T1, HLA-A*0201 (Homo sapiens, UniProt P04439, D140Y/D185E/D98H/E176V/E277Q/G131W/G231S/I119V/I121R/I166T/I218V/L300P/L318F/N151K/N90K/P208A/P217A/Q86G/Q94H/R138H/R169H/T345S); assay: Affinity of the peptide to T2 cell line (HLA-A*0201 binding, FACS with anti-HLA-A2 antibody); settings: T2 cells
T1 construct: human tumoral cell T2 which expresses the HLA-A*0201 molecule; endogenous in cells; host or cells: T2 cells (human, TAP1/2 negative)
Experimental: T2 cells (5·10^4 cells per well) are incubated with decreasing concentrations of peptides from 100 μM to 0.1 μM (4 points: 100 μM, 10 μM, 1 μM, 0.1 μM) in serum-free medium (TexMacs) supplemented with 100 ng/μl of 2 Microglobulin at 37° C. for 16 hours.
The analysis is achieved by FACS (Macsquant analyzer 10 or a Macsquant analyzer 16-Miltenyi).

Concentration of peptide that induces 20% of HLA-A2 expression (HLA-A*0201)	Sequence	immunogenicity: T cell response in ELISPOT-IFNγ [1]	cross-reactivity of induced T cells with the corresponding human peptide in ELISPOT-IFNγ [1]
1.79 µM	ALIFGQLLL [TOP2A-B2]	induced significant T cell responses; also recorded: strongly immunogenic; also recorded: induced strong immune responses	able to drive an effective immune response against the corresponding human peptide; also recorded: Cross-reactivity
0.05 µM	ALYSEILTV [ANKRD30A-B1]	induced significant T cell responses; also recorded: strongly immunogenic; also recorded: induced strong immune responses	able to drive an effective immune response against the corresponding human peptide; also recorded: Cross-reactivity
4.57 µM	SLPDRILDA (listed as Homo sapiens) [CDC20-H1, reference compound]		Cross-reactivity

— patent publication US20250205324A1, “ANTIGENIC PEPTIDES FOR PREVENTION AND TREATMENT OF CANCER” (ENTEROME S.A., priority 2022, published 2025)
